In one data set the test system is Ba/F3 parental cells. Description: Cell viability (MTS) assay, Ba/F3 parental. It counts as cell-based. The note with it: Mus musculus, BaF3, read-out: IC50 (insensitive/resistant up to stated concentration). How it is done: (§1) The parental Ba/F3 cell line was cultured in RPMI 1640 medium with 10% FBS, L-glutamine, penicillin/streptomycin and 15% WEHI-conditioned media. Ba/F3 cell lines were maintained at densities of 0.5×10^6 to 1.5×10^6 per ml of media. FIG-ROS and SLC-ROS Ba/F3 lines were created by infecting the parental Ba/F3 with retrovirus expressing either human FIG-ROS-S (indicated FIG-ROS herein) or SLC-ROS-S (indicated SLC-ROS herein). Stable transfectant lines were sorted for GFP expression on a FACS Aria® flow cytometer. Cells were counted daily using Guava ViaCount® reagent and Guava Personal Cell Analysis® flow cytometer. […] Early passage NIH3T3 cells were infected with retrovirus expressing either FIG-ROS or SLC-ROS and sorted for GFP expression as described above for Ba/F3 cells. HCC78 cells were cultured in RPMI 1640 medium with 10% FBS, L-glutamine, and penicillin/streptomycin. This media is referred to as RPMI-10% FBS herein.
(§2) […]. The Ba/F3 parental line was also tested. (O'Dwyer M E and Druker B J, Lancet Oncology 1, 207-211 (2000); Walters D K et al, Cancer Cell 10, 65-75 (2006); and Heukamp L C et al, Science Translational Medicine 4, 141ra191 (2012); […].

A further data set has as its target FIG-ROS (Homo sapiens, UniProt P08922). The experiment in a line: Immunoblot of Ba/F3 FIG-ROS lysates. The note with it: Ba/F3 FIG-ROS cells, increasing amounts, immunoblot FIG. 1C. The arrangement: expressed in transfected cells; host or cells: Ba/F3 (A14), retroviral pMSCV-IRES-GFP; the other entry of the earlier key: GOPC (Q9HD26, Golgi-associated PDZ and coiled-coil motif-containing protein). It counts as cell-based. How it is done: FIG. 1C is an image of an immunoblot of lysates of Ba/F3 FIG-ROS and Ba/F3 SLC-ROS and the indicated downstream effectors after treatment with the indicated compounds. Images shown are representative of three independent experiments.
(§3) Ba/F3 FIG-ROS, Ba/F3 SLC-ROS, HCC78 and mCC cell lines were treated with the indicated concentration of inhibitors for 1-2 hours. […] The protein content of the cell lysates was determined and lysates were either used for immunoprecipitation where indicated or extracted with SDS Sample buffer for 15 minutes at 80° C. Proteins were transferred to Immobilon-FL membranes and immunoblotted with antibodies specific for phospho-ROS1 (Cell Signaling Technology (CST) #3078), total ROS1 (CST #3266), phopsho-Shp2 (CST #3751), total Shpt (CST #3752), phospho-Stat3 (CST #9145), total Stat3 (CST #4904), phospho-Erk1/2 (CST #9101), total Erk2 (Santa Cruz #SC-1647), phospho-S6 (CST #4858), total S6 (CST #2216), phospho-Src (CST #2105), total Src (CST #2110), α-tubulin (Sigma T6199), or β-actin (Sigma A1978) as indicated. Images of the blots were generated by the LI-COR Odyssey® imaging system, following the manufacturer's protocol for immunoblot detection with use of IR-dye conjugated secondary antibodies.

Another data set deals with T1, Ba/F3 SLC-ROS cells (Homo sapiens, UniProt P08922).
T1 construct: SLC-ROS-S (SLC-ROS) was cloned from cDNA made from HCC78 cells; fused on or other part: GFP is co-expressed from an IRES in pMIG and is not fused; O95436 (Sodium-dependent phosphate transport protein 2B)
Description: Cell viability (MTS) assay, Ba/F3 SLC-ROS. It counts as cell-based. To be noted: 72 hours, read-out: IC50 (the source's name). How it is done:
as §1, §2

Data set [1] deals with FIG-ROS cholangiocarcinoma tumor cells. The experiment in a line: Anchorage-independent colony formation in soft agar, FIG-ROS cholangiocarcinoma cells. It is filed as cell-based, murine. To be noted: dose dependent. From the text: […]. The values indicate the mean and the error bars indicate the standard error of the mean of 3 independent wells.
. The inhibition was dose dependent (FIG. 2B). […].

The target in data set [2] is Ba/F3 FIG-ROS L1982F cells (Homo sapiens, UniProt P08922, L1982F, cells depend on it). The experiment in a line: Cell viability assay, Ba/F3 FIG-ROS L1982F. The note with it: Table 3, Ba/F3 FIG-ROS L1982F; nM; read-out: IC50 (the source's name). It is filed as cell-based. How it is done:
(§4) Cell lines were distributed in 96-well plates and incubated with the indicated concentrations of inhibitor for 72 hours. […] Ba/F3 cell lines were plated at 4×10^3 cells/well. HCC78 and mCC cell lines were plated at 1.5×10^3 cells/well. All cell types were seeded in a final volume of 80 microliters. A 20 microliter volume of five-fold concentrated inhibitor media was added. Cell proliferation was measured using a […] viability assay (CellTiter96 Aqueous One® Solution; Promega). A BioTek Synergy 2® plate reader was used to read the absorbance at 490 nm at 30 minutes and 1 hour after addition of MTS. To facilitate comparison between experiments, the raw MTS absorbance of vehicle (0.1% DMSO) treated cells was set to 1 and absorbance from inhibitor treated wells was normalized to the vehicle treated value. […] Data were normalized using Microsoft Excel® and further non-linear regression curve fit analysis of the normalized data for determination of IC50 was performed using Graphpad Prism® software.
(§5) The FIG-ROS-S fusion gene was synthesized using the GeneArt® service. FIG-ROS-S is denoted as FIG-ROS herein.

The next data set deals with NIH3T3 FIG-ROS cells. The experiment in a line: Soft agar colony formation, NIH3T3 FIG-ROS. It is filed as cell-based. The note with it: at lower doses than crizotinib. An excerpt: The bottom panels are bar graphs indicating the number of colonies formed from the plates depicted in the top panels. The values indicate average colony number±SEM from 4 independent wells.

The target in data set [3] is Ba/F3 FIG-ROS kinase domain mutants (Homo sapiens, UniProt P08922, cells depend on it, form not given). Description: Cell viability assay, all tested Ba/F3 FIG-ROS kinase domain mutants. It counts as cell-based. The note with it: V2098I, G1971E, L1982F, C2060G, L1947R, E1935G; read-out: IC50 across all tested FIG-ROS mutants. The procedure:
as §4, §5

For data set [4] the following is noted: established, reported in the literature; read-out: steady state maximum plasma concentration Cmax; cited from earlier work.
The test system of data set [5] is FIG-ROS and ROS-1 effector pathway phosphorylation. The experiment in a line: Immunoblot of FIG-ROS tumor lysates after oral gavage. It is filed as in vivo, mice. To be noted: 25 mg/kg oral gavage. How it is done: FIG. 3D is an image of an immunoblot of tumor lysates probed for phosphorylated and total ROS1, phosphorylated and total Shpt, phosphorylated and total Stat3, phosphorylated and total Src as well as tubulin as a loading control.
as §3
Concomitant with diminished FIG-ROS activation, phosphorylation of Shpt and Stat3, but not Src is inhibited in the treated tumors.
(In general: A western blot detects proteins with antibodies after separation by electrophoresis.)

Where only a bound is given, the exact number is not on record here.

Ba/F3 FIG-ROS L1982F cells, sequence (P08922 whole entry L1982F): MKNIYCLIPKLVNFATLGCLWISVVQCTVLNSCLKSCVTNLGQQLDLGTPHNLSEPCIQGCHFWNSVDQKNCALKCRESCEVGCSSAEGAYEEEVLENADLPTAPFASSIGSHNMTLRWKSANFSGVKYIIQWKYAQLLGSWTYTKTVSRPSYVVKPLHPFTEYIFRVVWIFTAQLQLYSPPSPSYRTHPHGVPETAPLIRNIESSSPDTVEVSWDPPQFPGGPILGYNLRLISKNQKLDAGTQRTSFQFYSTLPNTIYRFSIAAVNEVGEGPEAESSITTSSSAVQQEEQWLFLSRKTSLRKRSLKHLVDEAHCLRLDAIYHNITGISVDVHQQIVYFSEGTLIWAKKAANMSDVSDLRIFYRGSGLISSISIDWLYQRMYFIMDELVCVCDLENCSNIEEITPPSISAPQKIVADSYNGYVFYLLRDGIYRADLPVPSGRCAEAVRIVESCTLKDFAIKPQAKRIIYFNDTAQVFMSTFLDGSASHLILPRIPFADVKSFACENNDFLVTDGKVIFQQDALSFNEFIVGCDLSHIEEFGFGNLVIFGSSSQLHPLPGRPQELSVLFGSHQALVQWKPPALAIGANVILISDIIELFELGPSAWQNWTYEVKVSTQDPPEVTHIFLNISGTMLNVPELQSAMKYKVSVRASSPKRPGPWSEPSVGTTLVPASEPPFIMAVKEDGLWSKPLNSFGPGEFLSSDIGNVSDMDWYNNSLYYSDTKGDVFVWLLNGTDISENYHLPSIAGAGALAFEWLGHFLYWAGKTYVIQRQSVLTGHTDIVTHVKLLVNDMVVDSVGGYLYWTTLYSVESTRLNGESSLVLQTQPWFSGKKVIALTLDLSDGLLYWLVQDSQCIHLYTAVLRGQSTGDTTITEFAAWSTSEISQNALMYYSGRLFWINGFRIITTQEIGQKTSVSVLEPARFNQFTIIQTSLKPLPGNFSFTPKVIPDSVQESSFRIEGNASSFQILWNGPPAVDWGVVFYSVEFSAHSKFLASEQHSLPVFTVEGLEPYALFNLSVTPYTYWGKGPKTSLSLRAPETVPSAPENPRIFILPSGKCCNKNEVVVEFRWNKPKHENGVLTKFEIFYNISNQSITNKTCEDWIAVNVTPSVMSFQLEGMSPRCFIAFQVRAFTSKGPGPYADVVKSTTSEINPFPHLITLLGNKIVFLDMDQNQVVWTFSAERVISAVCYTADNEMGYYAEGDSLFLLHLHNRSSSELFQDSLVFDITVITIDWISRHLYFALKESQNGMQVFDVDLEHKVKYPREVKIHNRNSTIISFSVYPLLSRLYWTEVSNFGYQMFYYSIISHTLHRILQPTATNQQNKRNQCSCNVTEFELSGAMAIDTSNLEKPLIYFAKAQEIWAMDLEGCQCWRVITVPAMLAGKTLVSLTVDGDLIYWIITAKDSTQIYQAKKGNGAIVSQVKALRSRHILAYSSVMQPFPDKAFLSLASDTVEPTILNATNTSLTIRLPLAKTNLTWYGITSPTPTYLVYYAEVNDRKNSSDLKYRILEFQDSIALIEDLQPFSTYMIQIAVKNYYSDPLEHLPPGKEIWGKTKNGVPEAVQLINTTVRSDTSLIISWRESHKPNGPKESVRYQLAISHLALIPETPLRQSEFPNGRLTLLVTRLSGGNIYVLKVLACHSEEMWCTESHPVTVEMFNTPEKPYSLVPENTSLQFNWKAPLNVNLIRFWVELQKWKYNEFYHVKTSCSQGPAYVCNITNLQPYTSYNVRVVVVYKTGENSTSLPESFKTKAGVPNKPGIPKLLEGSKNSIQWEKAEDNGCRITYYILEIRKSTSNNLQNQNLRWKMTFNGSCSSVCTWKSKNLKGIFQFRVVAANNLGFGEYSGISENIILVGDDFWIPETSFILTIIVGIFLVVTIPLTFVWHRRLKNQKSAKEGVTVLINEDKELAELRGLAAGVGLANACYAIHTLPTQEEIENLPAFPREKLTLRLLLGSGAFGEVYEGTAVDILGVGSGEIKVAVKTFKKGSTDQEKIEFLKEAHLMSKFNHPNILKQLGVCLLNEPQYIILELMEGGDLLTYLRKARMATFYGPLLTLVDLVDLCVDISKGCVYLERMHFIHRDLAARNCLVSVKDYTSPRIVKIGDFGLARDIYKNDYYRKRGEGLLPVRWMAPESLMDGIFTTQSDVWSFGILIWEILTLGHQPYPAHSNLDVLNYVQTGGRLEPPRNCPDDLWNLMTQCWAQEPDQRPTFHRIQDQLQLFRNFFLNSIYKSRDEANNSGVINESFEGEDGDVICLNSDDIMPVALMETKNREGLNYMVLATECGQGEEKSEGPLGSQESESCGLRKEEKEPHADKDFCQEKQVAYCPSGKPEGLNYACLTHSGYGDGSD
FIG-ROS, sequence (P08922 with tags, fused parts or gaps): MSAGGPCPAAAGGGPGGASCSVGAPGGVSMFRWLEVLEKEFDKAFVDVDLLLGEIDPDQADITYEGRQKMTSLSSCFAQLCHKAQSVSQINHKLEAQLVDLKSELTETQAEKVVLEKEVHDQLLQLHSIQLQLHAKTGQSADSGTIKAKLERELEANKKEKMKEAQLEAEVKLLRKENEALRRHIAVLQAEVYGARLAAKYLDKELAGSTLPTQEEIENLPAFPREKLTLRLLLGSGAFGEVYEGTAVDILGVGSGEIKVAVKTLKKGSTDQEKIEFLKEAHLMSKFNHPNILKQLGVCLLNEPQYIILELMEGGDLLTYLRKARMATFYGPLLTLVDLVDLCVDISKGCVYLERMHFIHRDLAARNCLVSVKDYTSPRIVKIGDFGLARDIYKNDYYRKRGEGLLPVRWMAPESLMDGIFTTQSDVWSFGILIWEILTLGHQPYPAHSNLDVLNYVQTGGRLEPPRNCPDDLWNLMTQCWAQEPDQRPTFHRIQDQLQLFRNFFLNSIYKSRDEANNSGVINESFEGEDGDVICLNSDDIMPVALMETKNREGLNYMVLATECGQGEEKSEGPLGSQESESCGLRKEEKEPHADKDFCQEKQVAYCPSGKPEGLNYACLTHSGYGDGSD
T1 sequence (P08922 whole entry, change not shown, the tested form may be a part): as the sequence (P08922 whole entry L1982F) above, with F1982L counted along it

Turning to `COc1cc2c(Oc3ccc(NC(=O)C4(C(=O)Nc5ccc(F)cc5)CC4)cc3F)ccnc2cc1OCCCN1CCOCC1` [foretinib, N1′-[3-fluoro-4-[[6-methoxy-7-(3-morpholinopropoxy)-4-quinolyl]oxy]phenyl]-N1-(4-fluorophenyl)cyclopropane-1,1-dicarboxamide], the IC50 with Ba/F3 parental cells was above 2000 nM. Moreover, at FIG-ROS, the “autophosphorylation of FIG-ROS and ROS1-driven signaling (phospho-Shp2, phospho-ERK1/2)” value is reported as “dose dependent decrease”. Also, the values for the GI50 (on Ba/F3 SLC-ROS cells; in [2]; in data set [3]) were 10 nM, 15.3 nM and below 20 nM, respectively. Moreover, the “anchorage-independent colonies in soft agar” value in [1] was “inhibited”. Besides, the anchorage-independent colony formation entry in the data set with NIH3T3 FIG-ROS cells is on record as “strongly suppressed”. For the same compound, in data set [4], the Cmax was 340 nM. Also, the “intra-tumoral phosphorylation of Shpt and Stat3” value in data set [5] (FIG-ROS tumors) is on record as “is inhibited”. Moreover, the “intra-tumoral phosphorylation of Src” value in data set [5] (FIG-ROS tumors) is on record as “but not Src”. Besides, in data set [5] (tumors harvested at 1, 2, 4 and 8 hours), the “intra-tumoral FIG-ROS phosphorylation” value was “Rapid and robust inhibition”.

Source of the values: patent US20140243332A1, “METHODS OF TREATING CANCERS CHARACTERIZED BY ABERRENT ROS1 ACTIVITY” (Oregon Health & Science University, priority 2013, published 2014).
